The record followed here is patent US4442218A, “Method of measuring degree of partitioning” (Corning Glass Works, priority 1981, dated 1984).

Where two headings read alike, the source gives them in different places.

Assay [1] addresses thyroxine antibodies immobilized within the pores of stainless steel cylindrical monoliths. The experiment in a line: Scatchard plot evaluation of binding constant, stainless steel cylindrical monoliths. The arrangement: species or system rabbit. Conditions: ambient temperature, overnight, shaking, cylindrical monolith, read-out: binding constant K (slope of Scatchard plot) (converted). The method, then:
The treated monoliths were combined with 3.0 ml of a stock solution (prepared as described below) of an immunoglobulin-enriched fraction of an antithyroxine antiserum per 100 g of monoliths dissolved in sufficient 0.1 M phosphate buffer solution (PBS) at pH 7.0 to insure complete submersion of the monoliths (the 3.0 ml of stock solution was equivalent to 0.3 mg of protein per monolith). A water aspirator vacuum was applied to the resulting mixture for a time sufficient to insure complete penetration of the liquid phase into the pores of the monoliths. The mixture then was maintained at 4° on a reciprocating shake table (Eberbach Corporation, Ann Arbor, Mich.) for 48 hours. […] If the bound and free antigen can be separated and the quantity bound measured, then the value of K can be determined by constructing a Scatchard plot; see, e.g., E. D. Day, "Advanced Immunochemistry", Williams & Wilkens Co., Baltimore, Md., 1972, pp. 118ff. Such a procedure is particularly suited to solid-phase immunoassay systems since the bound antigen is readily separated from the free or unbound antigen. The value of K for the monolith-thyroxine antibody complex was determined as follows. […] (3) Each tube was counted for one minute to obtain total counts. […]

In assay [2] the target is thyroxine antibodies immobilized within the pores of stainless steel disc-shaped monoliths. In words: Scatchard plot evaluation of binding constant, stainless steel disc-shaped monoliths. Conditions: total liquid volume 0.5 ml; disc-shaped monolith, 0.5 mg protein per monolith; read-out: binding constant K (Scatchard plot). The arrangement: species or system rabbit. The method, then:
The procedure of Example 1 was repeated, except that the cylindrical monoliths were replaced with 316 stainless steel discs 8 mm in diameter and 1.6 mm in thickness and the amount of protein per monolith was increased to 0.5 mg. Mean pore diameters were about 40μ and the total surface area of each disc was about 60 cm^2. In a random sampling of 10 discs, the average weight per disc was 0.330 g with a coefficient of variation of 0.3 percent. The discs were obtained as Stock No. S-2298 from Sintered Specialties, Janesville, Wisc. The Scatchard plot data were obtained using a total liquid volume of 0.5 ml per tube and serial dilutions of I^125 -labeled thyroxine from about 500,000 cpm to about 25,000 cpm.

In the case of `N[C@@H](Cc1cc(I)c(Oc2cc(I)c(O)c(I)c2)c(I)c1)C(=O)O` [thyroxine], the Kd is 0.175 nM in assay [1] (total reaction volume 0.5 ml), 0.167 nM in assay [1] (total reaction volume 1.0 ml) and 1 nM in assay [2].
